This is an account of results in patent US6423706B1, “Antimicrobial locks comprising taurinamide derivatives and carboxylic acids and/or salts thereof” (Biolink Corporation, priority 1998, dated 2002).

Where two headings read alike, the source gives them in different places.

For data set [1], the system named is Candida albicans. The conditions noted are these: oral isolate, human buccal epithelial cells; concentration dependent; cited from earlier work.
Data set [2] deals with E. coli. Particulars: urine isolate, human uroepithelial cells; concentration dependent; cited from earlier work.
The test system of data set [3] is S. epidermis. Particulars: cited from earlier work.
In data set [4] the test system is whole blood. The experiment in a line: Clotting of whole pig blood mixed with taurolidine solution with or without ACD-A. Particulars: pig blood filled to 30 mL, inspected after 30 minutes. The method, then: A 0.5% solution of taurolidine in Ringer-lactate solution (Thomae, Biberach, Germany) was introduced into each of four polyethylene bottles having a 30 mL volume. Filling volumes were 5, 10, and 15 mL. One bottle was filled with 5 mL of the taurolidine solution and 2 mL ACD-A (Fresenius, Bad Homburg, Germany) solution. ACD-A solution is used for the conservation of whole blood and contains per liter: 22.0 grams of sodium citrate dihydrate, 7.3 grams of citric acid and 34.5 grams of glucose monohydrate.
Blood was collected at the slaughter house from a female pig directly from the slaughter wound into the containers that were then filled up to the 30 mL level. The containers were capped and gently moved to mix blood with the solution. The containers were inspected after 30 minutes. Blood in the containers containing only taurolidine was clotted, but the blood in the container containing the mixture of taurolidine and ACD-A was not clotted.

Data set [5] is described as follows: Long term stability of taurolidine in solution. The data set is classed as physicochemical. Particulars: citric acid and sodium citrate buffer, compared with PVP solutions. The source says: In addition, citric acid is a known antioxidant. The buffer system created by adjustment of pH using sodium hydroxide also resists changes in the pH due to the oxidation of formaldehyde to formic acid.

The conditions of data set [6]: clinical and bacteriologic outcomes, endotoxemia, organ failure, 28-day mortality; cited from earlier work.
Data set [7] relates to Staphylococcus Aureus (VISA, MRSA). Particulars: pH 7.0 to pH 5.0; cited from earlier work.
The subject of data set [8] is B. fragilis. Particulars: 0.2 mL of 20% solution in 5% polyvinyl pyrrolidone intravenous; B. fragilis intraperitoneal; cited from earlier work.
The test system of data set [9] is E. coli. Particulars: 0.2 mL of 20% solution in 5% polyvinyl pyrrolidone intravenous; E. coli intraperitoneal; cited from earlier work.
For data set [10] the following is noted: mouse, in vivo; cited from earlier work.
The conditions of data set [11]: mice; cited from earlier work.

For the compound povidone-iodine, the Anti-adherence activity result in data set [1] and in data set [2] was “significant” each time.

Regarding heparin, the Inhibition of growth result in data set [3] (isolate from catheter of infected patient) was “does not inhibit the growth”.

Take `O=C(O)CN(CCN(CC(=O)O)CC(=O)O)CC(=O)O` [disodium EDTA, ethylenediaminetetraacetic acid]: the Bactericidal concentration in [3] (initial inoculum 10^3 CFU per mL, in 24 hours) is reported as 20 mg/mL.

For `[H]/N=C(\N/C(=N/[H])NCCCCCCNC(=N)NC(=N)Nc1ccc(Cl)cc1)Nc1ccc(Cl)cc1` [chlorhexidine], the Anti-adherence activity entry in data set [1] and in [2] was “significant” each time.

As to `O=S1(=O)CCN(CN2CCS(=O)(=O)NC2)CN1` [taurolidine, bis-(1,1-dioxo-perhydroxy-1,2,4-thiadiazin-4-yl)methane], the “Blood clotting on inspection” value in data set [4] was “clotted”. In addition, the “Stability of taurolidine in solution” value in data set [5] is recorded as “increases the stability”. For the same compound, the “Therapeutic effect on outcome” value in [6] was “no beneficial therapeutic effect”. In addition, where the note is “additional citric acid, without polyol or PVP”, the “Taurolidine solubility believed reachable” value is given as 5%. The “Taurolidine in solution achieved” value (approximately 2.6% by weight citric acid, no PVP or polyol, pH 5.2 to 5.3) is reported as 4.0 weight percent. Further, the “Dependence of activity on pH” value in data set [7] is on record as “increases with decreasing pH”. For the same compound, the Mortality rate result in data set [8] and in data set [9] was “very significantly reduce the mortality rate” each time. For the same compound, the Anti-adherence activity result in [1] and in data set [2] was “significant” each time. Further, the Teratogenicity result in data set [10] is given as “non-teratogenic”. The “Intraperitoneal LD50” value in data set [11] is reported as ~1.5 g/kg.

As for `CN[C@H](CC(C)C)C(=O)N[C@H]1C(=O)N[C@@H](CC(N)=O)C(=O)N[C@H]2C(=O)N[C@H]3C(=O)N[C@H](C(=O)N[C@H](C(=O)O)c4cc(O)cc(O)c4-c4cc3ccc4O)[C@H](O)c3ccc(c(Cl)c3)Oc3cc2cc(c3O[C@@H]2O[C@H](CO)[C@@H](O)[C@H](O)[C@H]2O[C@H]2C[C@](C)(N)[C@H](O)[C@H](C)O2)Oc2ccc(cc2Cl)[C@H]1O` [Vancomycin], in [3] (initial inocula 10^3 CFU/mL), the Bactericidal concentration was 0.0067 mg/mL.
